Test results from US9169252B2 (BRISTOL-MYERS SQUIBB COMPANY, priority 2014, dated 2015).
Like-named read-outs stand apart in the source and are kept apart here.

What was measured:
[1] = target: IRAK4 (Homo sapiens (Human), UniProt Q9NWZ3); experiment: IRAK4 Inhibition Assay; format: biochemical; conditions: IRAK4 Inhibition Assay; ATP 500 μM; read-out: IRAK4 IC50
Outline: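 Mobility-shift readout: fluorescent substrate and phosphoproduct resolved electrophoretically on Caliper LabChip 3000 after EDTA quench (35 mM). Enzyme reaction of IRAK4, substrates and test compound ran 60 min at room temperature.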

[2] = test system: TLR2 induced IL-6 in peripheral blood mononuclear cells (PBMCs); experiment: PBMC TLR2 Induced IL-6 Assay; format: cell-based, human; conditions: PBMC TLR2 Induced IL-6 Assay, lipoteichoic acid stimulation, IL-6 by ELISA; for EC50: read-out: Cell EC50; for IC50: read-out: Cell IC50
Outline: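 Lipoteichoic acid at 10 µg/ml served as TLR2 stimulus for 5 hours, following a 30-minute compound pretreatment at 37° C. Cells were Ficoll-isolated human PBMCs, 250000 cells/well, cultured in RPMI plus 10% heat-inactivated FCS.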

Sequence of IRAK4 (Q9NWZ3 whole entry, species assumed): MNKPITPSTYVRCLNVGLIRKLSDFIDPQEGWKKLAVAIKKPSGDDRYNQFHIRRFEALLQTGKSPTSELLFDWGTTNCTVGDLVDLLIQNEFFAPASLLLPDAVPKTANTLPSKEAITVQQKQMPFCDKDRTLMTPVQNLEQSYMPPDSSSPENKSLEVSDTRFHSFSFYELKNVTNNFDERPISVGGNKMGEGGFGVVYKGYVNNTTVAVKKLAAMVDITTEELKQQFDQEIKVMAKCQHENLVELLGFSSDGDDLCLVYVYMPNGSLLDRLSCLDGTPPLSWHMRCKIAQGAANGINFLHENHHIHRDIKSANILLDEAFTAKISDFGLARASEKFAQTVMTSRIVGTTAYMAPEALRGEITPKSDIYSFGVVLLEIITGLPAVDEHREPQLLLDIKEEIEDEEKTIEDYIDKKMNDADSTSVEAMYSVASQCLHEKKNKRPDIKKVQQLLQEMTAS

IC50 [1] [nM]	SMILES	EC50 ([2]; Homo sapiens, PBMC) [nM]	IC50 ([2]; Homo sapiens, PBMC) [nM]	IC50 [2] [nM]	EC50 [2] [nM]
15.5	CC(C)Nc1cc(-n2ncc3cc(C#N)cnc32)ncc1C(=O)Nc1ccc(O)cn1 [Example 217]	503			
19.5	CNC(=O)C[C@H]1CC[C@H](NC(=O)c2cnc(-n3ncc4cc(C#N)cnc43)cc2NC(C)C)CC1 [Example 218]	111			
14.9	CC(C)Nc1cc(-n2ncc3cc(C#N)cnc32)ncc1C(=O)NCCNS(C)(=O)=O [Example 219]	502	678		
6.5	CC(C)Nc1cc(-n2ncc3cc(C#N)cnc32)ncc1C(=O)NCCC1CCCCO1 (stereo not shown) [Example 220]	168			
8.4	CC(C)Nc1cc(-n2ncc3cc(C#N)cnc32)ncc1C(=O)Nc1ccc(N2CCOCC2)cn1 [Example 221]	230			
5.1	CC(C)Nc1cc(-n2ncc3cc(C#N)cnc32)ncc1C(=O)Nc1ccc(N2CCOCC2)cc1 [Example 222]	305			
4	CC(C)Nc1cc(-n2ncc3cc(C#N)cnc32)ncc1C(=O)Nc1cc2cc[nH]c2cn1 [Example 223]		178		
6.7	CC(C)Nc1cc(-n2ncc3cc(C#N)cnc32)ncc1C(=O)Nc1cnc(N2CCOCC2)nc1 [Example 224]	303	159		
9.2	CC(C)Nc1cc(-n2ncc3cc(C#N)cnc32)ncc1C(=O)Nc1ccc(OCCN(C)C)cn1 [Example 225]	98			
6.8	CC(C)Nc1cc(-n2ncc3cc(C#N)cnc32)ncc1C(=O)Nc1ccc(CN2CCOCC2)cc1 [Example 226]	248			
5.3	CC(C)Nc1cc(-n2ncc3cc(C#N)cnc32)ncc1C(=O)Nc1ccc(N2CCNCC2)nc1 [Example 227]	55			
6.9	CC(C)Nc1cc(-n2ncc3cc(C#N)cnc32)ncc1C(=O)Nc1ccc(N(C)C)nc1 [Example 228]	163			
9.6	CNC(=O)[C@H](F)CNC(=O)c1cnc(-n2ncc3cc(C#N)cnc32)cc1NC(C)C [Example 229]	137	1420		
13.4	CC(C)Nc1cc(-n2ncc3cc(C#N)cnc32)ncc1C(=O)NC[C@@H](F)C(=O)N[C@@H](C)CO [Example 230]	410	459		
14.2	CC(C)Nc1cc(-n2ncc3cc(C(F)F)cnc32)ncc1C(=O)NC[C@@H](F)C(C)(C)O [Example 231]	237	544		
4.7	CC(C)(CO)Nc1cc(-n2ncc3cc(C#N)cnc32)ncc1C(=O)NC[C@@H](F)C(C)(C)O [Example 234]	128	1360		
6.1	CC(C)Nc1cc(-n2ncc3cc(C#N)cnc32)ncc1C(=O)NCCC1(O)CCOCC1 [Example 235]	184			
11.6	CC(C)Nc1cc(-n2ncc3cc(C#N)cnc32)ncc1C(=O)Nc1ccc(C(C)(C)O)cn1 [Example 236]	323			
6.7	CC(C)Nc1cc(-n2ncc3cc(C#N)cnc32)ncc1C(=O)NCCC1(O)CCOC1 (stereo not shown) [Example 237]	102	364		

IC50 [1] [nM]	SMILES	EC50 ([2]; Homo sapiens, PBMC) [nM]	IC50 ([2]; Homo sapiens, PBMC) [nM]	IC50 [2] [nM]	EC50 [2] [nM]
8.1	CC(O)CCNC(=O)c1cnc(-n2ncc3cc(C#N)cnc32)cc1NC(C)C (stereo not shown) [Example 238]	357		1810	
5.3	CC(O)CCNC(=O)c1cnc(-n2ncc3cc(C#N)cnc32)cc1NC(C)C (stereo not shown) [Example 239]			775	211
15.7	CC(C)Nc1cc(-n2ncc3cc(C#N)cnc32)ncc1C(=O)NC1CCN(c2ncccn2)CC1 [Example 240]	305			
7.3	CC(C)Nc1cc(-n2ncc3cc(C#N)cnc32)ncc1C(=O)Nc1ccc(N2CCN(C)CC2)cn1 [Example 241]	292			
5.3	CC(C)Nc1cc(-n2ncc3cc(C#N)cnc32)ncc1C(=O)NCC(F)C1(O)COC1 (stereo not shown) [Example 243]	298		1990	
6.3	CC(C)Nc1cc(-n2ncc3cc(C#N)cnc32)ncc1C(=O)N[C@H]1CC[C@H](C(C)(C)O)C1 [Example 244]	259			
15.7	CC(C)Nc1cc(-n2ncc3cc(C#N)cnc32)ncc1C(=O)N[C@@H]1CCCN(S(C)(=O)=O)C1 [Example 245]	233			
19.8	CC(C)Nc1cc(-n2ncc3cc(C#N)cnc32)ncc1C(=O)N[C@H]1CCCN(S(C)(=O)=O)C1 [Example 246]	353			
6.8	COC1CCN(c2ccc(NC(=O)c3cnc(-n4ncc5cc(C#N)cnc54)cc3NC(C)C)cn2)CC1 [Example 247]	173			
3.6	CC(C)Nc1cc(-n2ncc3cc(C#N)cnc32)ncc1C(=O)NCC(F)C1(O)COC1 (stereo not shown) [Example 248]			554	
6.1	CC(C)Nc1cc(-n2ncc3cc(C#N)cnc32)ncc1C(=O)NCC(F)C1(O)COC1 (stereo not shown) [Example 249]			355	
8.3	CC(C)Nc1cc(-n2ncc3cc(C#N)cnc32)ncc1C(=O)NCCC1(O)CCN(C)CC1 [Example 250]	497			
3.1	CC(C)Nc1cc(-n2ncc3cc(C#N)cnc32)ncc1C(=O)NCCc1ccc(S(N)(=O)=O)cc1 [Example 251]	311			
3.6	CC(C)Nc1cc(-n2ncc3cc(C#N)cnc32)ncc1C(=O)NCCC1(O)CCCC1 [Example 252]		197		
8.5	CC(C)Nc1cc(-n2ncc3cc(C#N)cnc32)ncc1C(=O)NCCC1(O)CCN(C2COC2)CC1 [Example 253]		363		
10	COC1CCN(c2ccc(NC(=O)c3cnc(-n4ncc5cc(C#N)cnc54)cc3NC(C)C)nc2)CC1 [Example 254]		496		
7.5	CC(C)Nc1cc(-n2ncc3cc(C#N)cnc32)ncc1C(=O)NCCC1(O)CCNC1 (stereo not shown) [Example 255]	329			
14.7	CC(C)Nc1cc(-n2ncc3cc(C#N)cnc32)ncc1C(=O)NC[C@@H](F)C(=O)N1CCOCC1 [Example 256]		148		
8.9	CC(C)Nc1cc(-n2ncc3cc(C#N)cnc32)ncc1C(=O)NC[C@@H](F)C(=O)N1CCN(S(C)(=O)=O)CC1 [Example 257]	136			

IC50 [1] [nM]	SMILES	EC50 ([2]; Homo sapiens, PBMC) [nM]	IC50 ([2]; Homo sapiens, PBMC) [nM]	IC50 [2] [nM]	EC50 [2] [nM]
6.3	CC(C)Nc1cc(-n2ncc3cc(Cl)cnc32)ncc1C(=O)NCC(F)C1(O)COC1 (stereo not shown) [Example 258]		42		
2.5	CC(C)Nc1cc(-n2ncc3cc(C#N)cnc32)ncc1C(=O)NCCc1ccncc1 [Example 259]		102		
3.3	CC(C)Nc1cc(-n2ncc3cc(C#N)cnc32)ncc1C(=O)NCCc1ccc(F)cc1 [Example 260]		159		
3.4	COc1ccc(CCNC(=O)c2cnc(-n3ncc4cc(C#N)cnc43)cc2NC(C)C)cc1 [Example 261]		154		
1.3	CC(C)Nc1cc(-n2ncc3cc(C#N)c(N)nc32)ncc1C(=O)NC[C@@H](F)C(C)(C)O [Example 262]		48		
6.5	CC(C)Nc1cc(-n2ncc3cc(C#N)cnc32)ncc1C(=O)NCCC(C)NS(C)(=O)=O (stereo not shown) [Example 264]		338		
2.4	CC(C)Nc1cc(-n2ncc3cc(C#N)cnc32)ncc1C(=O)NCCC(C)NS(C)(=O)=O (stereo not shown) [Example 265]			241	
2.6	CC(C)Nc1cc(-n2ncc3cc(C#N)cnc32)ncc1C(=O)NCCC1CCN(C)CC1 [Example 266]		73		
4.5	CC(C)Nc1cc(-n2ncc3cc(C#N)cnc32)ncc1C(=O)NCc1nc(Cc2ccccc2)no1 [Example 267]		516		
10.6	CC(C)Nc1cc(-n2ncc3cc(C#N)cnc32)ncc1C(=O)Nc1cnn(C2COC2)c1 [Example 268]		171		
3.6	CC(C)Nc1cc(-n2ncc3cc(C#N)cnc32)ncc1C(=O)NCCc1ccc(N(S(C)(=O)=O)S(C)(=O)=O)cc1 [Example 269]		171		
1.6	CC(=O)Nc1ccc(CCNC(=O)c2cnc(-n3ncc4cc(C#N)cnc43)cc2NC(C)C)cc1 [Example 270]		348		
15.9	CC(C)Nc1cc(-n2ncc3cc(C#N)cnc32)ncc1C(=O)Nc1cnn(C2CCOCC2)c1 [Example 271]		176		
5.1	CC(C)Nc1cc(-n2ncc3cc(C#N)cnc32)ncc1C(=O)NC1CCN(S(=O)(=O)C(C)C)CC1 [Example 272]		737		
18.6	CC(C)Nc1cc(-n2ncc3cc(C#N)cnc32)ncc1C(=O)NC1CCN(C(=O)C(C)C)CC1 [Example 273]		94		
8	CC(C)Nc1cc(-n2ncc3cc(C#N)cnc32)ncc1C(=O)NCCC1CCN(C(=O)CC#N)CC1 [Example 275]		115		
4.7	CC(C)Nc1cc(-n2ncc3cc(C#N)cnc32)ncc1C(=O)NCCc1cccnc1 [Example 276]		380		
5.9	CC(C)Nc1cc(-n2ncc3cc(C#N)cnc32)ncc1C(=O)NCCC1(O)CCC(C)(O)CC1 (stereo not shown) [Example 277]		251		
6.5	CC(C)Nc1cc(-n2ncc3cc(C#N)cnc32)ncc1C(=O)NCCC1(O)CCC(F)(F)CC1 [Example 279]		247		
